What was measured:
[1] = target: T1, pig pancreatic IB PLA2 (Sus scrofa, UniProt P00592); test: Rate-lowering of hydrolysis of DMPC + 0.05 mole fraction cholate vesicles by pig pancreatic PLA2; assay type: biochemical; conditions: 0.03 mole fraction; DMPC + 0.05 mole fraction cholate
T1 construct: made in house
Excerpt: (§1) Independent support for selective binding of the rate lowering compounds to a regulatory site on PLA2 comes from the rate-lowering effect of such compounds on the hydrolysis of DMPC vesicles containing 0.05 mole fraction cholate.
(§2) Scores of other compounds in guggul were not active.

[2] = target: T2, human pancreatic IB PLA2 (Homo sapiens, UniProt P04054); test: Hydrolysis of DMPC vesicles by human IB PLA2 with added bile salt; assay type: biochemical; conditions: 1 mM DMPC
T2 construct: gift of Dr. Suren Tatulian (Orlando, Fla.)
T2 sequence (P04054 23-148): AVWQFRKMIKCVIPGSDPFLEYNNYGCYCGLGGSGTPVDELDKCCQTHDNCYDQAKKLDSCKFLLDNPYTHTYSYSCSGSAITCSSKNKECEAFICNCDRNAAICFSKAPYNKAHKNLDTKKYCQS
Experimental: (§3) Aqueous dispersion of phospholipid was sonicated in a bath type sonicator. Virtually transparent suspension was annealed for at least 4 hours at room temperature before use. Reaction progress for the PLA2 catalyzed hydrolysis of sonicated DMPC (1 mM) vesicles was measured by pH-stat titration (Radiometer) with 1 mM 2-aminopropanediol in 4 ml reaction buffer containing 5 mM CaCl2 for DMPC (or 0.5 mM for DMPM), 1 mM NaCl, and 0.1 mM EDTA at pH 8.0 and 24° C. in the nitrogen purged closed atmosphere. Reaction was initiated by adding 0.1 μg enzyme in 1-10 μl solution. The pH stat method was also used for monitoring the rate of hydrolysis of DMPM (0.4 mM) vesicles in the presence of polymyxin [27-29], or of the mixed-micelles of POPC with bile salts in 1:2 ratio [13, 30].

[3] = target: T3, PLA2 N117W (Sus scrofa, UniProt P00592, N139W); test: Bile salt binding by Trp emission, N117W PLA2; parameters: species or system pig; conditions: read-out: KEB
T3 construct: made in house
T3 sequence (P00592 23-146 N139W): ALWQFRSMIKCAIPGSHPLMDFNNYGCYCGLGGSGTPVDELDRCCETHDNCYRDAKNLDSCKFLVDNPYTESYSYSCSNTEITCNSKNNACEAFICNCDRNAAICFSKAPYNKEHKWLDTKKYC
Experimental: (§4) Fluorescence emission spectrum or time course of the intensity change from tryptophan or the resonance energy transfer probe TMA-DPH were measured in the ratio mode on SLM-Aminco AB2 in a 1 cm cuvette [31, 32] in 1.6 ml stirred buffer containing 1 or 2 μM PLA2 in 10 mM Tris, 5 mM CaCl2 and 20 mM NaCl at pH 8.0 and 24° C. The slit-widths were 4 nm with excitation at 280.
(§5) As shown in [45], the binding of decylsulfate to the R site is accompanied by a modest increase in the emission intensity from Trp-3. […] As summarized in Table 2, the value of KEB depends on the position of Trp, although Hill coefficient remains 1. […] Note that KEB for the EB complex of ΔPLA2 is about 7-fold larger than that for PLA2.

[4] = test system: Naja venom PLA2; assay type: biochemical, Naja melanoleuca
Experimental: as §3

[5] = target: T4, PLA2 (Sus scrofa, UniProt P00592); test: PLA2 catalyzed hydrolysis of mixed micelles of POPC with bile salts; assay type: biochemical, pig; conditions: 1 mM POPC, 0.7 mole fraction bile salt
T4 construct: made in house
T4 sequence (P00592 23-146): as the sequence (P00592 23-146 N139W) above, with W117N counted along it
Experimental: as §3

[6] = target: T2, human pancreatic IB PLA2; test: Rate-lowering of hydrolysis of DMPC + 0.05 mole fraction cholate vesicles by human pancreatic PLA2; assay type: biochemical
Excerpt: as §1, §2

[7] = target: PLA2 K63W/W3F (Sus scrofa, UniProt P00592, W25F/); test: Bile salt binding by Trp emission, K63W/W3F PLA2; parameters: species or system pig; conditions: read-out: KEB
Chain of PLA2 K63W/W3F (P00592 whole entry W25F/F85W, form open): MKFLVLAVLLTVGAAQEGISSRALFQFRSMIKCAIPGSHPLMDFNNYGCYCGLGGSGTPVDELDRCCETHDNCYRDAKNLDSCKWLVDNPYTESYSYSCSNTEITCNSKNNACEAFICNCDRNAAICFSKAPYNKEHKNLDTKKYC
Experimental: as §4, §5

[8] = target: T4, PLA2; test: Quenching of RET signal from TMA-DPH bound to PLA2 by bile salts; assay type: binding, pig; conditions: 1 μM PLA2 and TMA-DPH, pH 8.0
Experimental: as §4

[9] = target: T5, PLA2 K53W/W3F (Sus scrofa, UniProt P00592, R75W/W25F); test: Bile salt binding by Trp emission, K53W/W3F PLA2; parameters: species or system pig; conditions: read-out: KEB
T5 construct: made in house
T5 sequence (P00592 23-146 W25F/R75W): as the sequence (P00592 23-146 N139W) above, with W3F, R53W, W117N counted along it
Experimental: as §4, §5

[10] = target: T6, PLA2 L19W/W3F (Sus scrofa, UniProt P00592, L41W/W25F); test: Bile salt binding by Trp emission, L19W/W3F PLA2; parameters: species or system pig; conditions: read-out: KEB
T6 construct: made in house
T6 sequence (P00592 23-146 W25F/L41W): as the sequence (P00592 23-146 N139W) above, with W3F, L19W, W117N counted along it
Experimental: as §4, §5

[11] = target: T7, PLA2 Δ62-66 (Sus scrofa, UniProt P00592, DEL84-88); test: Bile salt binding by Trp emission, Δ62-66 PLA2; parameters: species or system pig
T7 construct: made in house
T7 sequence (P00592 with tags, fused parts or gaps DEL84-88): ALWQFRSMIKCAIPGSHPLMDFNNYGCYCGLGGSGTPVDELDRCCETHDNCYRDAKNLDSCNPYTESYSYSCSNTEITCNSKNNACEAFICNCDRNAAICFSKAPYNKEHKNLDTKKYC
Experimental: as §4, §5

[12] = target: T8, PLA2 K56W/W3F (Sus scrofa, UniProt P00592, K78W/W25F); test: Bile salt binding by Trp emission, K56W/W3F PLA2; parameters: species or system pig; conditions: read-out: KEB
T8 construct: made in house
T8 sequence (P00592 23-146 W25F/K78W): as the sequence (P00592 23-146 N139W) above, with W3F, K56W, W117N counted along it
Experimental: as §4, §5

[13] = target: T9, PLA2 M20W/W3F (Sus scrofa, UniProt P00592, M42W/W25F); test: Bile salt binding by Trp emission, M20W/W3F PLA2; parameters: species or system pig; conditions: read-out: KEB
T9 construct: made in house
T9 sequence (P00592 23-146 W25F/M42W): as the sequence (P00592 23-146 N139W) above, with W3F, M20W, W117N counted along it
Experimental: as §4, §5

[14] = target: T10, PLA2 L2W/W3F (Sus scrofa, UniProt P00592, L24W/W25F); test: Bile salt binding by Trp emission, L2W/W3F PLA2; parameters: species or system pig; conditions: read-out: KEB
T10 construct: made in house
T10 sequence (P00592 23-146 L24W/W25F): as the sequence (P00592 23-146 N139W) above, with L2W, W3F, W117N counted along it
Experimental: as §4, §5

[15] = target: T11, PLA2 A1W/W3F (Sus scrofa, UniProt P00592, A23W/W25F); test: Bile salt binding by Trp emission, A1W/W3F PLA2; parameters: species or system pig; conditions: read-out: KEB
T11 construct: made in house
T11 sequence (P00592 23-146 A23W/W25F): as the sequence (P00592 23-146 N139W) above, with A1W, W3F, W117N counted along it
Experimental: as §4, §5

[16] = target: T12, PLA2 (3W)(WT) (Sus scrofa, UniProt P00592); test: Bile salt binding by Trp emission, (3W)(WT) PLA2; parameters: species or system pig; conditions: read-out: KEB
T12 construct: made in house
T12 sequence (P00592 23-146): as the sequence (P00592 23-146 N139W) above, with W117N counted along it
Experimental: as §4, §5

[17] = target: T13, PLA2 K10W/W3F (Sus scrofa, UniProt P00592, K32W/W25F); test: Bile salt binding by Trp emission, K10W/W3F PLA2; parameters: species or system pig; conditions: read-out: KEB
T13 construct: made in house
T13 sequence (P00592 23-146 W25F/K32W): as the sequence (P00592 23-146 N139W) above, with W3F, K10W, W117N counted along it
Experimental: as §4, §5

[18] = target: T14, (62-66)-loop deleted pig pancreatic IB ΔPLA2 (Sus scrofa, UniProt P00592, DEL84-88); test: Hydrolysis of DMPC vesicles by (62-66)-loop deleted ΔPLA2 with added bile salt; assay type: biochemical
T14 construct: made in house
T14 sequence (P00592 with tags, fused parts or gaps DEL84-88): as the sequence (P00592 with tags, fused parts or gaps DEL84-88) above
Experimental: as §3

[19] = target: PLA2 K10M (Sus scrofa, UniProt P00592, K32M); test: Bile salt binding by Trp emission, K10M PLA2; parameters: species or system pig; conditions: read-out: KEB
Chain of PLA2 K10M (P00592 whole entry K32M): as the sequence (P00592 whole entry W25F/F85W, form open) above, with F25W, K32M, W85F counted along it
Experimental: as §4, §5

T1 sequence (P00592 23-146): as the sequence (P00592 23-146 N139W) above, with W117N counted along it

C[C@H](CCC(=O)NCCS(=O)(=O)O)[C@H]1CC[C@H]2[C@@H]3[C@H](O)C[C@@H]4C[C@H](O)CC[C@]4(C)[C@H]3CC[C@]12C [TCDOC, taurochenodeoxycholate]
Relative Rate-lowering (%) Activity, pPLA2 [1]: 26% | effect on rate of hydrolysis of DMPC vesicles by human pancreatic IB PLA2 [2]: virtually no rate increase | Kd [3]: 7 µM | rate lowering effect with Naja venom enzyme [4]: not observed | initial rate of hydrolysis of POPC in mixed micelles [5]: 15 s⁻¹ | Relative Rate-lowering (%) Activity, hPLA2 ([6]; 0.03 mole fraction, DMPC + 0.05 mole fraction cholate): 90% | relative effectiveness in lowering the rate of hydrolysis by human PLA2 ([6]; DMPC vesicles containing 0.05 mole fraction cholate, FIG. 5B): more effective than ezetimibe | Kd [7]: 3 µM | efficacy to quench RET signal from TMA-DPH bound to PLA2 [8]: most effective | Kd [9]: 15 µM | Kd [10]: 3 µM | Kd ([11]; Δ62-66, read-out: KEB): 41 µM | KEB for the EB complex of ΔPLA2 relative to PLA2 ([11]; ΔPLA2 versus PLA2): about 7 fold | Kd [12]: 21 µM | Kd [13]: 75 µM | Kd [14]: 18 µM | Kd [15]: 210 µM | Kd [16]: 6 µM | Kd [17]: 4 µM | rate lowering effect with ΔPLA2 mutant [18]: not observed | Kd [19]: 8 µM
